# Tested on: 485176-168-R4-J1-PDC complex spheroid growth
# Assay: Anticancer human tumor 485176-168-R4-J1-PDC patient-derived pancreatic adenocarcinoma cell line growth inhibition [RAS]
# Conditions: for IC50: curve of first compound; for viability, T/C: stronger effect = lower value
# Text: RAS pathway inhibitors in Combinations in Complex Spheroids
# A high-throughput screen of multi-cell type tumor spheroids was designed to identify active combinations of RAS pathway inhibitors and targeted small molecules. Complex spheroids include a stromal component modeled by human endothelial cells (HUVEC) and fibroblasts modeled by human mesenchymal stem cells (MSCs). The concentration ranges selected for each drug and investigational agent were based upon clinically achievable concentrations if the clinical Cmax of the agent was known.
# Compounds. The drugs and investigational agents: abemaciclib (NSC768073), cobimetinib (NSC768068), divarasib (GDC6063, NSC841802), docetaxel (NSC628503), GDC-1971 (RLY-1971, NSC841576), gemcitabine (NSC613327), inavolisib (NSC800729), ipatasertib (NSC767898), KB-0742 (NSC834161), MRTX-1133 (NSC836407), osimertinib (NSC779217), RMC-4630 (NSC839698), RMC-6236 (NSC851965), RMC-6291 (NSC852671), Ro-3306 (NSC812927), sapanisertib (NSC764658), SN-38 (NSC673596), staurosporine (NSC755774), SY5609 (NSC837396), and tovorafenib (DAY101, NSC766906), were obtained from the National Cancer Institute (NCI) Developmental Therapeutics Program Chemical Repository. The FDA-approved anticancer drug set is available from the NCI Developmental Therapeutics Program. […] The stock solutions were prepared in dimethyl sulfoxide (DMSO, Sigma-Aldrich, St. Louis, MO, cat. D2650) at 800-fold the tested concentration and stored at -70 degrees C prior to their use. All drugs and investigational agents were tested over a range starting from a high concentration at or near the clinical Cmax and decreasing in half-log increments. If the clinical Cmax for an agent had not been determined, the highest concentration tested was 10 microM.
# Cell Culture. All cells were maintained in an incubator at 37 degrees C and 5% CO2 with 95% humidity. The PDC lines were cultured according to standard operating procedures established by the NCI PDMR. All PDCs were thawed and cultured in Matrigel-coated flasks prepared with a working solution of 1X Ham's F-12 nutrient mix, without supplementation (Invitrogen, Waltham, MA, cat. 11765054), 100 U/mL penicillin-streptomycin (Invitrogen, cat. 15140122), and 2.5% Matrigel (Corning Inc., Corning, NY, cat. 354248) for the first three passages. The 362531-283-R-J2-PDC and 782815-120-R-J1-PDC lines were cultured in 6C/Colon 1B media, which includes advanced DMEM/F-12 (Thermo Fisher Scientific, cat. 12634028), 10 mM HEPES (Thermo Fisher Scientific, cat. 15630080), 1X GlutaMAX supplement (Thermo Fisher Scientific, cat. 35050061), 0.1 mg/mL primocin (InvivoGen, San Diego, CA, cat. ant-pm-2), 10% defined fetal bovine serum, heat inactivated (HyClone Laboratories Inc., Logan, UT, cat. SH30070.03HI), 50% L-WRN conditioned media (ATCC, cat. CRL-3276), 1.25 mM N-Acetyl-L-cysteine (Sigma-Aldrich, cat. A9165), 10 mM nicotinamide (Sigma-Aldrich, cat. N0636), 1X B-27 supplement (Thermo Fisher Scientific, cat. 17504044), 1X N-2 supplement (Thermo Fisher Scientific, cat. 17502048), 50 ng/mL human EGF (Thermo Fisher Scientific, cat. PHG0311), and 10 microM Y-27632 dihydrochloride (Tocris Bioscience, cat. 1254). The K12877-001-R-J1-PDC line was cultured in 6I media, which includes all 6C/Colon 1B media plus 10 ng/mL human FGF-10 (PeproTech, cat. 100-26), 1 ng/mL human FGF-2 (PeproTech, cat. 100-18B), 1 µM prostaglandin E2 (Tocris Bioscience, cat. 2296), […] hydrocortisone (Sigma-Aldrich, cat. H4001), and […] bovine insulin (Sigma-Aldrich, cat. I6634). The K86415-001-R-J1-PDC line was cultured in 6D media, which includes all 6C/Colon 1B media components minus the L-WRN conditioned media. The 485176-168-R4-J1-PDC was cultured in PANC media, which includes all 6C/Colon 1B media plus 100 ng/mL human FGF-10 (PeproTech, cat. 100-26), 500 nM SB-431542 (Selleckchem, cat. S1067), and 10 nM gastrin (Tocris Bioscience, cat. 3006). […]
# [1] = second compound 0.0316 µM, first compound 0.0316 µM
# [2] = second compound 0.0316 µM, first compound 0.1 µM
# [3] = second compound 0.0316 µM, first compound 0.316 µM
# [4] = second compound 0.0316 µM, first compound 1 µM
# [5] = second compound 0.0316 µM, first compound 3.16 µM
# [6] = second compound 0.0316 µM, first compound 10 µM
# [7] = second compound 0.1 µM, first compound 0.0316 µM
# [8] = second compound 0.1 µM, first compound 0.1 µM
# [9] = second compound 0.1 µM, first compound 0.316 µM
# [10] = second compound 0.1 µM, first compound 1 µM
# [11] = second compound 0.1 µM, first compound 3.16 µM
# [12] = second compound 0.1 µM, first compound 10 µM
# [13] = second compound 0.316 µM, first compound 0.0316 µM
# [14] = second compound 0.316 µM, first compound 0.1 µM
# [15] = second compound 0.316 µM, first compound 0.316 µM
# [16] = second compound 0.316 µM, first compound 1 µM
# [17] = second compound 0.316 µM, first compound 3.16 µM
# [18] = second compound 0.316 µM, first compound 10 µM
# [19] = second compound 1 µM, first compound 0.0316 µM
# [20] = second compound 1 µM, first compound 0.1 µM
# [21] = second compound 1 µM, first compound 0.316 µM
# [22] = second compound 1 µM, first compound 1 µM
# [23] = second compound 1 µM, first compound 3.16 µM
# [24] = second compound 1 µM, first compound 10 µM
# [25] = second compound 3.16 µM, first compound 0.0316 µM
# [26] = second compound 3.16 µM, first compound 0.1 µM
# [27] = second compound 3.16 µM, first compound 0.316 µM
# [28] = second compound 3.16 µM, first compound 1 µM
# [29] = second compound 3.16 µM, first compound 3.16 µM
# [30] = second compound 3.16 µM, first compound 10 µM
# [31] = second compound 10 µM, first compound 0.0316 µM
# [32] = second compound 10 µM, first compound 0.1 µM
# [33] = second compound 10 µM, first compound 0.316 µM
# [34] = second compound 10 µM, first compound 1 µM
# [35] = second compound 10 µM, first compound 3.16 µM
# [36] = second compound 10 µM, first compound 10 µM
# 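Further: spheroids exposed to compounds for seven days before readout.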
# 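Wherever viability, T/C is given: luminescence viability expressed relative to DMSO vehicle wells set as 100%.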
compound,measurement,setting,value
CC(C)NCC(C(=O)N1CCN(c2ncnc3c2C(C)CC3O)CC1)c1ccc(Cl)cc1 (stereo unspecified) + C#Cc1c(F)ccc2cc(O)cc(-c3ncc4c(N5CC6CCC(C5)N6)nc(OCC56CCCN5CC(F)C6)nc4c3F)c12,IC50,second compound 0.0316 µM,3290 nM
same,IC50,second compound 0.1 µM,851 nM
same,IC50,second compound 0.316 µM,2770 nM
same,IC50,second compound 1 µM,884 nM
same,IC50,second compound 3.16 µM,2120 nM
same,IC50,second compound 10 µM,1510 nM
same,"viability, T/C",[1],113%
same,"viability, T/C",[2],99.2%
same,"viability, T/C",[3],84.7%
same,"viability, T/C",[4],70.1%
same,"viability, T/C",[5],47.3%
same,"viability, T/C",[6],38.5%
same,"viability, T/C",[7],99%
same,"viability, T/C",[8],127%
same,"viability, T/C",[9],72.8%
same,"viability, T/C",[10],59.8%
same,"viability, T/C",[11],45.6%
same,"viability, T/C",[12],33.4%
same,"viability, T/C",[13],109%
same,"viability, T/C",[14],96.5%
same,"viability, T/C",[15],72.7%
same,"viability, T/C",[16],65.4%
same,"viability, T/C",[17],51.8%
same,"viability, T/C",[18],31.1%
same,"viability, T/C",[19],92.2%
same,"viability, T/C",[20],105%
same,"viability, T/C",[21],72.4%
same,"viability, T/C",[22],51.4%
same,"viability, T/C",[23],48.5%
same,"viability, T/C",[24],35.3%
same,"viability, T/C",[25],99.3%
same,"viability, T/C",[26],96.1%
same,"viability, T/C",[27],82.9%
same,"viability, T/C",[28],53.8%
same,"viability, T/C",[29],52%
same,"viability, T/C",[30],31%
same,"viability, T/C",[31],104%
same,"viability, T/C",[32],87.9%
same,"viability, T/C",[33],82.6%
same,"viability, T/C",[34],55.8%
same,"viability, T/C",[35],36.8%
same,"viability, T/C",[36],33.9%
CC(C)n1nc(-c2ccc3oc(N)nc3c2)c2c(N)ncnc21 + C#Cc1c(F)ccc2cc(O)cc(-c3ncc4c(N5CC6CCC(C5)N6)nc(OCC56CCCN5CC(F)C6)nc4c3F)c12,IC50,second compound 0.0316 µM,31.8 nM
same,IC50,second compound 0.1 µM,19 nM
same,IC50,second compound 0.316 µM,34.6 nM
same,IC50,second compound 1 µM,25 nM
same,IC50,second compound 3.16 µM,22.1 nM
same,IC50,second compound 10 µM,23.3 nM
same,"viability, T/C","second compound 0.0316 µM, first compound 0.000316 µM",100%
same,"viability, T/C","second compound 0.0316 µM, first compound 0.001 µM",106%
same,"viability, T/C","second compound 0.0316 µM, first compound 0.00316 µM",88.6%
same,"viability, T/C","second compound 0.0316 µM, first compound 0.01 µM",82.3%
same,"viability, T/C",[1],49%
same,"viability, T/C",[2],19.8%
same,"viability, T/C","second compound 0.1 µM, first compound 0.000316 µM",96.2%
same,"viability, T/C","second compound 0.1 µM, first compound 0.001 µM",107%
same,"viability, T/C","second compound 0.1 µM, first compound 0.00316 µM",65.4%
same,"viability, T/C","second compound 0.1 µM, first compound 0.01 µM",69.2%
same,"viability, T/C",[7],39%
same,"viability, T/C",[8],23.7%
same,"viability, T/C","second compound 0.316 µM, first compound 0.000316 µM",98.3%
same,"viability, T/C","second compound 0.316 µM, first compound 0.001 µM",78.5%
same,"viability, T/C","second compound 0.316 µM, first compound 0.00316 µM",82.5%
same,"viability, T/C","second compound 0.316 µM, first compound 0.01 µM",63.1%
same,"viability, T/C",[13],61.7%
same,"viability, T/C",[14],20.1%
same,"viability, T/C","second compound 1 µM, first compound 0.000316 µM",88%
same,"viability, T/C","second compound 1 µM, first compound 0.001 µM",91.5%
same,"viability, T/C","second compound 1 µM, first compound 0.00316 µM",86.4%
same,"viability, T/C","second compound 1 µM, first compound 0.01 µM",55.9%
same,"viability, T/C",[19],51.9%
same,"viability, T/C",[20],22%
same,"viability, T/C","second compound 3.16 µM, first compound 0.000316 µM",91.9%
same,"viability, T/C","second compound 3.16 µM, first compound 0.001 µM",87.7%
same,"viability, T/C","second compound 3.16 µM, first compound 0.00316 µM",78.4%
same,"viability, T/C","second compound 3.16 µM, first compound 0.01 µM",80%
same,"viability, T/C",[25],36.6%
same,"viability, T/C",[26],21.5%
same,"viability, T/C","second compound 10 µM, first compound 0.000316 µM",92.3%
same,"viability, T/C","second compound 10 µM, first compound 0.001 µM",81.1%
same,"viability, T/C","second compound 10 µM, first compound 0.00316 µM",80.8%
same,"viability, T/C","second compound 10 µM, first compound 0.01 µM",68.9%
same,"viability, T/C",[31],42.5%
same,"viability, T/C",[32],20.9%
CC(Nc1ccc2c(c1)OCCn1cc(N3C(=O)OCC3C(F)F)nc1-2)C(N)=O (stereo unspecified) + C#Cc1c(F)ccc2cc(O)cc(-c3ncc4c(N5CC6CCC(C5)N6)nc(OCC56CCCN5CC(F)C6)nc4c3F)c12,IC50,second compound 0.0316 µM,> 10000 nM
same,IC50,second compound 0.1 µM,> 10000 nM
same,IC50,second compound 0.316 µM,> 10000 nM
same,IC50,second compound 1 µM,> 10000 nM
same,IC50,second compound 3.16 µM,> 10000 nM
same,IC50,second compound 10 µM,> 10000 nM
same,"viability, T/C",[1],97.5%
same,"viability, T/C",[2],86.5%
same,"viability, T/C",[3],91.8%
same,"viability, T/C",[4],83.5%
same,"viability, T/C",[5],59.1%
same,"viability, T/C",[6],65.4%
same,"viability, T/C",[7],114%
same,"viability, T/C",[8],98.6%
same,"viability, T/C",[9],71.9%
same,"viability, T/C",[10],70.8%
same,"viability, T/C",[11],69.4%
same,"viability, T/C",[12],50%
same,"viability, T/C",[13],92.5%
same,"viability, T/C",[14],75%
same,"viability, T/C",[15],88.8%
same,"viability, T/C",[16],79.4%
same,"viability, T/C",[17],75.3%
same,"viability, T/C",[18],54.8%
same,"viability, T/C",[19],107%
same,"viability, T/C",[20],81.1%
same,"viability, T/C",[21],85.8%
same,"viability, T/C",[22],90.5%
same,"viability, T/C",[23],78%
same,"viability, T/C",[24],56.6%
same,"viability, T/C",[25],107%
same,"viability, T/C",[26],94.2%
same,"viability, T/C",[27],85.8%
same,"viability, T/C",[28],79.9%
same,"viability, T/C",[29],53.4%
same,"viability, T/C",[30],56.5%
same,"viability, T/C",[31],91.7%
same,"viability, T/C",[32],88.9%
same,"viability, T/C",[33],67.7%
same,"viability, T/C",[34],71.4%
same,"viability, T/C",[35],72.1%
same,"viability, T/C",[36],44%
